# Laboratory results from patent US20250281606A1 (AKSEERA PHARMA CORP., priority 2020, published 2025).
# “And” between values parts separate entries of the source, which are not always exact repeats. Identical values can stand only once. Like-named read-outs stand apart in the source and are kept apart here.
# Key:
# [1] = system: IgG and IgM antibody titres (serum); assay type: in vivo, Balb/c mice
# [2] = system: IgG and IgM antibody titres (serum); test: IgG and IgM antibody titres in mice vaccinated with Covishield, with or without oral CBD; details: for IgG, serum (CLIA, EIA) / IgM, serum (CLIA, EIA): individual mice (F/M); for augmentation of overall IgG response to vaccine by CBD / augmentation of overall IgM response to vaccine by CBD: CBD throughout or until vaccination, same magnitude, vs vaccine alone; for time after vaccine by which IgG and IgM responses were significantly elevated compared to mice not given CBD: CBD throughout the study or just until vaccine
# [3] = 0 Day, group GII (CS): Covishild + CBD 102.5 mg/kg/d gavage day -7 to 28
# [4] = 0 Day, group GIII (CS): Covishild + CBD 102.5 mg/kg/d gavage day -7 to 0, then discontinued
# [5] = 7th Day, group GII (CS): Covishild + CBD 102.5 mg/kg/d gavage day -7 to 28
# [6] = 7th Day, group GIII (CS): Covishild + CBD 102.5 mg/kg/d gavage day -7 to 0, then discontinued
# [7] = 14 Day, group GII (CS): Covishild + CBD 102.5 mg/kg/d gavage day -7 to 28
# [8] = 14 Day, group GIII (CS): Covishild + CBD 102.5 mg/kg/d gavage day -7 to 0, then discontinued
smiles,measurement,setting,value
"C=C(C)[C@@H]1CCC(C)=C[C@H]1c1c(O)cc(CCCCC)cc1O [CBD Formulation, Cannabidiol]","IgG, serum (CLIA, EIA)",[1]; 0 Day,7.4 IU/mL and 6.8 IU/mL and 7.2 IU/mL and 7.1 IU/mL and 9.2 IU/mL and 7.5 IU/mL and 8.21 IU/mL
same,"IgG, serum (CLIA, EIA)",[1]; 14 Day,7.2 IU/mL and 6.4 IU/mL and 7.1 IU/mL and 7.4 IU/mL and 6 IU/mL and 9.1 IU/mL and 7 IU/mL and 7.3 IU/mL
same,"IgM, serum (CLIA, EIA)",[1]; 14 Day,9.3 AU/mL and 9.8 AU/mL and 10.2 AU/mL and 10.3 AU/mL and 9 AU/mL and 10.4 AU/mL and 9.2 AU/mL
same,"IgG, serum (CLIA, EIA)",[1]; 21 Day,7.3 IU/mL and 7.1 IU/mL and 7.5 IU/mL and 7.2 IU/mL and 9.1 IU/mL and 7 IU/mL and 7.4 IU/mL
same,"IgG, serum (CLIA, EIA)","[1]; mouse, in vivo",7.2 IU/mL and 7.1 IU/mL and 7.3 IU/mL and 6.9 IU/mL and 9.2 IU/mL and 7.5 IU/mL and 8.21 IU/mL
same,"IgM, serum (CLIA, EIA)","[1]; mouse, in vivo",10.2 AU/mL and 9.8 AU/mL and 10 AU/mL and 10.1 AU/mL and 10.3 AU/mL
same,augmentation by CBD of the response to Covaxin compared with Covishield,"[1]; mouse, in vivo",tended to be less
same,day at which a rise in IgM was seen,"[1]; mouse, in vivo",7 days
same,day at which a significant rise in IgG and IgM was apparent,"[1]; mouse, in vivo",7 days
same,day by which a rise in IgG was seen,"[1]; mouse, in vivo",≤ 14 days
same,overall IgM response to Covaxin versus Covaxin alone,"[1]; mouse, in vivo",augmented
same,"IgG, serum (CLIA, EIA)",[2]; [3],7.4 IU/mL and 7.8 IU/mL and 7.1 IU/mL (2×) and 6.8 IU/mL and 6.4 IU/mL
same,"IgM, serum (CLIA, EIA)",[2]; [3],9.2 AU/mL (2×) and 8.2 AU/mL and 10.1 AU/mL and 9.4 AU/mL and 8.8 AU/mL
same,"IgG, serum (CLIA, EIA)",[2]; [4],7.5 IU/mL and 6.8 IU/mL (2×) and 6.5 IU/mL and 7.21 IU/mL and 7.2 IU/mL
same,"IgM, serum (CLIA, EIA)",[2]; [4],9.4 AU/mL and 9.3 AU/mL (3×) and 9.2 AU/mL and 9.1 AU/mL
same,"IgG, serum (CLIA, EIA)",[2]; [5],7.4 IU/mL and 7.5 IU/mL and 8.2 IU/mL and 7.3 IU/mL (2×) and 7.8 IU/mL
same,"IgM, serum (CLIA, EIA)",[2]; [5],10.2 AU/mL and 8.2 AU/mL and 10.11 AU/mL and 10.5 AU/mL and 10.4 AU/mL
same,"IgG, serum (CLIA, EIA)",[2]; [6],7.4 IU/mL and 6.9 IU/mL and 7.3 IU/mL (2×) and 7.2 IU/mL and 7.1 IU/mL
same,"IgM, serum (CLIA, EIA)",[2]; [6],9.2 AU/mL and 9.6 AU/mL and 10.1 AU/mL and 10.2 AU/mL and 10.3 AU/mL
same,"IgG, serum (CLIA, EIA)",[2]; [7],7.5 IU/mL and 7.8 IU/mL (3×) and 7.6 IU/mL and 8.2 IU/mL
same,"IgM, serum (CLIA, EIA)",[2]; [7],10.5 AU/mL and 10.15 AU/mL and 10.52 AU/mL
same,"IgG, serum (CLIA, EIA)",[2]; [8],7.5 IU/mL (2×) and 7.6 IU/mL and 7.3 IU/mL and 7.8 IU/mL and 7.9 IU/mL
same,"IgM, serum (CLIA, EIA)",[2]; [8],10.1 AU/mL and 10.5 AU/mL and 10.3 AU/mL (2×)
same,"IgG, serum (CLIA, EIA)","[2]; 21 Day, group GII (CS): Covishild + CBD 102.5 mg/kg/d gavage day -7 to 28",7.8 IU/mL (2×) and 7.1 IU/mL and 7.5 IU/mL and 7.9 IU/mL and 8.1 IU/mL
same,"IgG, serum (CLIA, EIA)","[2]; 21 Day, group GIII (CS): Covishild + CBD 102.5 mg/kg/d gavage day -7 to 0, then discontinued",7.6 IU/mL (2×) and 8.1 IU/mL (3×) and 7.8 IU/mL
same,augmentation of overall IgG response to vaccine by CBD,"[2]; FIG. 2C, average overall response over 28 days",15%
same,augmentation of overall IgM response to vaccine by CBD,"[2]; FIG. 2D, average overall response over 28 days",25%
same,augmentation of overall IgG response to vaccine by CBD,"[2]; FIG. 2I, AUC over 28 days, female mice",13%
same,augmentation of overall IgM response to vaccine by CBD,"[2]; FIG. 2J, AUC over 28 days, female mice",21%
same,time after vaccine by which IgG and IgM responses were significantly elevated compared to mice not given CBD,[2]; FIGS. 2E and 2F,≤ 7 days
same,IgG response at day 7 versus vehicle (no CBD) group,"[2]; FIGS. 2K and 2L, female mice, CBD given throughout the trial",significantly better IgG response
same,time after vaccine by which IgG and IgM responses were significantly elevated compared to mice not given CBD,"[2]; FIGS. 2K and 2L, female mice",≤ 14 days
same,course of antibody titres in mice given vaccine plus CBD,"[2]; compared with vaccine without CBD, whose titres did not rise, up to day 28",rose and remained elevated until day 28
